Laboratory results taken from patent publication US20070225213A1, “Nucleic acid carriers for delivery of therapeutic agents” (priority 2006, published 2007).

Experiment: Column chromatography determination of drug loading limit of NAC-drug
Format: physicochemical
Conditions: Drug only (MTN, no carrier)
Source text: In a dosage form suitable for parenteral administration, the nucleic acid can be combined with the drug in an aqueous formulation of saline, dextrose or other suitable aqueous vehicle suitable for administration. It is preferred that the drug and the nucleic acid are combined in water or other suitable medium, prior to dilution in saline or media, in order to prevent inhibition of drug binding to the nucleic acid. The dosage form can be sterilized by a variety of means, and can optionally take the form of a concentrate that can be diluted in saline or other suitable vehicle prior to injection. It is preferred to minimize the amount of free drug in the injectable solution, such that the mass ratio of nucleic acid to drug is sufficient to bind most of the drug, and to limit free drug in the bloodstream. […] The percentage loading possible for other nucleic acid binding drugs will vary depending on their binding characteristics, and can be determined by column chromatography, spectrophotometry, and cytotoxicity assay methods as described herein. […]
Determination of drug loading limit of mitoxantrone (MTN) in a nucleic acid carrier (NAC) using a 2.5×9 cm G25 column (EX031904) and herring sperm DNA (HSDNA approx. range 10-100 bp Sigma-Aldrich). […] Collected 5 ml and checked absorbance scan of 0.2 ml sample on Synergy HT1. […] Collected 7.5 ml and read absorbance scan of 0.2 ml sample. […]

With `O=C1c2c(O)ccc(O)c2C(=O)c2c(NCCNCCO)ccc(NCCNCCO)c21` [MTN, mitoxantrone] the “G25 Column Results” value was “Single band, slow”.
